Reference: patent publication US20220324835A1 (Nurix Therapeutics, Inc., priority 2018, published 2022)

Assays:
Cbl-b [1] = biological target: T1, Cbl-b (Homo sapiens, UniProt Q13191); assay: Cbl-b inhibition assay (Cbl-b activity assay, FRET, Biological Example 1; 100 mM NaCl, 60 nM Src kinase); format: biochemical; conditions: upper bound stated in text lists; read-out: IC50 values in the Cbl-b inhibition assay of Biological Example 1
Outline: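 Inhibitor activity is measured as reduced terbium-to-fluorescein FRET between streptavidin-terbium on biotinylated Cbl-b and Bodipy-fluorescein ubiquitin carried by an irreversible UbcH5B-Ub conjugate, binding of which depends on Src phosphorylation of Cbl-b.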

T-cell [2] = assay: IL-2 secretion from T-cells co-stimulated with anti-CD3 and anti-CD28 antibody (Biological Example 2); format: cell-based, human; conditions: Homo sapiens, T-cell, read-out: IL-2 secretion Anti-CD3/Anti-CD28 stimulation; for fold induction at 0.3 µM: 0.3 μM Cbl-b inhibitor; for fold induction at 1 µM: 1 μM Cbl-b inhibitor
Outline: (§1)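 No assay protocol given; T-cells stimulated with anti-CD3 alone or anti-CD3 plus anti-CD28, with or without Cbl-b inhibitor. Activation read as IL-2 secretion or CD25 surface staining, expressed as fold over baseline from uninhibited cells […].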

T-cell [3] = assay: IL-2 secretion from T-cells stimulated with anti-CD3 antibody alone (Biological Example 2); format: cell-based, human; conditions: T-cell, read-out: IL-2 secretion Anti-CD3 stimulation; for fold induction at 1 µM: 1 μM Cbl-b inhibitor
T-cell [4] = assay: CD25 cell surface staining on T-cells co-stimulated with anti-CD3 and anti-CD28 antibody (Biological Example 2); format: cell-based, human; conditions: Homo sapiens, T-cell, read-out: CD25 staining Anti-CD3/Anti-CD28 stimulation; for fold induction at 0.3 µM: 0.3 μM Cbl-b inhibitor; for fold induction at 1 µM: 1 μM Cbl-b inhibitor
Outline: as §1

T-cell [5] = assay: CD25 cell surface staining on T-cells stimulated with anti-CD3 antibody alone (Biological Example 2); format: cell-based, human; conditions: T-cell, read-out: CD25 staining Anti-CD3 stimulation; for fold induction at 1 µM: 1 μM Cbl-b inhibitor
Cbl-b [6] = biological target: T1, Cbl-b; assay: Cbl-b activity assay (Cbl-b inhibition assay), TR-FRET of Cbl-b interaction with UbcH5B-Ub; format: biochemical; conditions: assay buffer with 100 mM NaCl, 60 nM Src kinase; read-out: Cbl-b activity IC50
Outline: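 TR-FRET readout of Cbl-b binding to Bodipy-fluorescein N-terminally labeled Ub conjugated to UbcH5B C85K, measured with compound present. After compound incubation, 60 nM Src kinase with 1 mM ATP and 5 mM MgCl2 (final) was added for 1.5 h, then a further 1 h incubation; asterisked values used 50 mM NaCl buffer and 30 nM Src.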

[7] = fold change over baseline (anti-CD3/anti-CD28 stimulated T-cells without inhibitor)
[8] = Homo sapiens, fold change over baseline (anti-CD3/anti-CD28 stimulated T-cells without inhibitor)
[9] = fold change over baseline, primary human total T-cells
[10] = fold change over baseline, 4 μM Cbl-b inhibitor, primary human total T-cells
[11] = fold change over baseline, 8 μM Cbl-b inhibitor, primary human total T-cells

T1 sequence (Q13191 36-427): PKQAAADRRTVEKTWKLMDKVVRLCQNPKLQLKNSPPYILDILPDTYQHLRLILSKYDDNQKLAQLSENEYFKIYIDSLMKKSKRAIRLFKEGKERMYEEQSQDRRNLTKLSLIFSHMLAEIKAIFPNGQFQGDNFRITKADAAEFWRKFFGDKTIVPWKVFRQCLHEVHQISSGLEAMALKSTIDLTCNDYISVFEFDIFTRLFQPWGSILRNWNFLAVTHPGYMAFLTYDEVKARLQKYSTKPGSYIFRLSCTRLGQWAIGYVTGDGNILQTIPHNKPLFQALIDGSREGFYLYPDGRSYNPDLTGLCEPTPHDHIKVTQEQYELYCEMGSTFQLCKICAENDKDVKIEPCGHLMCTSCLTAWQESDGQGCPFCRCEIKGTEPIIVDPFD

Structure (SMILES)	IC50 (Cbl-b [1])	fold induction at 0.3 µM (T-cell [2]; [7])	fold induction at 1 µM (T-cell [2]; [7])	fold induction at 1 µM (T-cell [3]; [8])	fold induction at 0.3 µM (T-cell [4]; [7])	fold induction at 1 µM (T-cell [4]; [7])	fold induction at 1 µM (T-cell [5]; [8])	IC50 (Cbl-b [6])	fold induction at 0.3 µM (T-cell [2]; [9])	fold induction at 1 µM (T-cell [2]; [9])	fold induction at 4 µM (T-cell [2]; [10])	fold induction at 1 µM (T-cell [3]; [9])	fold induction at 8 µM (T-cell [3]; [11])	fold induction at 0.3 µM (T-cell [4]; [9])	fold induction at 1 µM (T-cell [4]; [9])	fold induction at 4 µM (T-cell [4]; [10])	fold induction at 1 µM (T-cell [5]; [9])	fold induction at 8 µM (T-cell [5]; [11])
Cn1cnnc1CC1(c2cccc(N3Cc4c(cc(N5CC(C(F)F)C5)cc4C(F)(F)F)C3=O)c2)COC1 [Example 594, 6-(3-(Difluoromethyl)azetidin-1-yl)-2-(3-(3-((4-methyl-4H-1,2,4-triazol-3-yl)methyl)oxetan-3-yl)phenyl)-4-(trifluoromethyl)isoindolin-1-one]	≤ 100 nM	2.51 to 5	5 to 7.5	0.051 to 0.1	1.01 to 1.3	1.01 to 1.3	0.801 to 1	< 100 nM										
COc1ccc2c(c1)CN(Cc1cc3c(c(C(F)(F)F)c1)CN(c1cccc(C4(Cc5nncn5C)COC4)c1)C3=O)C2 [Example 656, 6-((5-methoxyisoindolin-2-yl)methyl)-2-(3-(3-((4-methyl-4H-1,2,4-triazol-3-yl)methyl)oxetan-3-yl)phenyl)-4-(trifluoromethyl)isoindolin-1-one]	≤ 100 nM	> 7.5	> 7.5	> 0.201	1.31 to 1.5	1.31 to 1.5	> 1	< 100 nM										
C[C@@H](c1cccc(N2Cc3c(cccc3C(F)(F)F)C2=O)c1)[C@H](F)c1nncn1C (relative stereo) [Compound 293, trans-2-(3-(1-fluoro-1-(4-methyl-4H-1,2,4-triazol-3-yl)propan-2-yl)phenyl)-4-(trifluoromethyl)isoindolin-1-one]	≤ 500 nM							100 to 300 nM	2.51 to 5	2.51 to 5	2.51 to 5	0.101 to 0.15	> 0.201	1.01 to 1.3	1.01 to 1.3	1.01 to 1.3	0.601 to 0.8	0.801 to 1
Cn1cnnc1[C@@H](F)C1(c2cccc(N3Cc4c(cc(CN5CCCC5)cc4C(F)(F)F)C3=O)c2)COC1 [Example 673a, (S)-2-(3-(3-(fluoro(4-methyl-4H-1,2,4-triazol-3-yl)methyl)oxetan-3-yl)phenyl)-6-(pyrrolidin-1-ylmethyl)-4-(trifluoromethyl)isoindolin-1-one]	≤ 100 nM	5 to 7.5	> 7.5	> 0.201	> 1.76	> 1.76	0.801 to 1	< 100 nM										
C[C@H](c1cc2c(c(C(F)(F)F)c1)CN(c1cccc(C3(Cc4nncn4C)COC3)c1)C2=O)N1CC(F)C1 [Example 668a, (R)-6-(1-(3-fluoroazetidin-1-yl)ethyl)-2-(3-(3-((4-methyl-4H-1,2,4-triazol-3-yl)methyl)oxetan-3-yl)phenyl)-4-(trifluoromethyl)isoindolin-1-one]	≤ 100 nM	2.51 to 5	5 to 7.5	0.101 to 0.15	1.31 to 1.5	1.51 to 1.75	> 1	< 100 nM										
Cc1cc2c(c(C3CC3)n1)CN(c1cccc(C3(C(F)(F)c4nncn4C)COC3)c1)C2=O [Example 677, 4-cyclopropyl-2-(3-(3-(difluoro(4-methyl-4H-1,2,4-triazol-3-yl)methyl)oxetan-3-yl)phenyl)-6-methyl-2,3-dihydro-1H-pyrrolo[3,4-c]pyridin-1-one]	≤ 1000 nM	1.01 to 2.5	1.01 to 2.5	0.051 to 0.1	1.01 to 1.3	1.01 to 1.3	0.601 to 0.8	301 to 1000 nM										
